Patent publication US9458437B2, “Neuroprotective peptides that inhibit interaction between palmitoyl acyl transferase zinc-finger DHHC type containing 17 (zD17) and c-jun N-terminal kinase (JNK)” (The University of British Columbia, priority 2011, dated 2016)

Assays:
cultured neurons = test: axonal development in cultured neurons (Tau-1 labelling); assay type: cell-based, rat
Method: (§1) For biochemical studies, neurons were seeded in six-well culture plates with a density of 7.5×10^5 cells per well. For LDH assay and cell death detection, 24-well culture plates were used with a neuron density of 2.5×10^5 cells per well. Neurons of 14-17 days in vitro (DIV) were used for experiments. […] HEK 293 cells were maintained in DMEM (Invitrogen™) supplemented with 10% fetal bovine serum and 1% penicillin/streptomycin. For protein expression in cell lines, cells were transfected with Calcium Phosphate Transfection reagent (Promega™, San Luis Obispo, Calif., USA) and used 24 h later as described previously (Yang et al., 2009). The JNK inhibitor, L-JNKI, was purchased from Alexis Biochemicals™ (San Diego, Calif.). Thrombin was obtained from BIOPUR™ (Bubendorf, Switzerland). Other assay reagents without indication were obtained from Sigma™.
Cultured hippocampal neurons on glass coverslips were used for immunostaining. After treatments indicated in the text, neurons were fixed with 2% paraformaldehyde for 3 min at room temperature followed by permeabilization with ice-cold methanol for 10 min at −20° C. The coverslips were then washed three times with PBS and immunostained with appropriate antibodies dissolved in PBS for 1 h at room temperature. After washing three times with PBS, coverslips were incubated with Alexa-labeled secondary antibodies from Invitrogen for an additional 1 h. For mitochondrial detection, neuronal cultures were incubated at 37° C. for 30 min with 2 μM MitoTracker-TR (Invitrogen™). Coverslips were then fixed and mounted with ProLong Gold Antifade Reagent (Invitrogen™). Fluorescence was captured using a Zeiss Observer Z1™ microscope and all images were analyzed with ImageJ™ and processed using Adobe Photoshop™.

JNK3 = target: T1, JNK3 (Rattus norvegicus, UniProt P49187); test: kinase assay (KA) on JNK3 immunoprecipitated from cell lysates; assay type: cell-based
T1 construct: cell lysates were prepared and JNK was immunoprecipitated with specific antibodies; endogenous in cells; host or cells: rat primary neuronal cultures; JNK3 immunoprecipitated from lysate
Method: JNK activity was measured with an in vitro kinase assay as described elsewhere (see, for e.g.: Khatlani et al., 2007). Briefly, cell lysates were prepared and JNK was immunoprecipitated with specific antibodies. The immnoprecipitates were then resuspended in 1× kinase buffer (Cell Signaling Technology™) supplemented with 200 μM ATP and 250 μg/ml GST-c-jun (1-89), and incubated at 30° C. for 30 min. Reactions were terminated by the addition of SDS-PAGE sample buffer. Phosphorylated c-jun was resolved by SDS-PAGE and detected with anti-p-c-jun.

zD17-JNK3 interaction = zD17-JNK3 interaction (Rattus norvegicus, UniProt P49187); test: co-immunoprecipitation of zD17 with JNK3 in cortical neuronal cultures; assay type: cell-based; parameters: diminished the co-immunoprecipitation of zD17 with JNK3; endogenous in cells; host or cells: primary cortical neurons of embryonic (E18-19) Wistar rat; conditions: for zD17-JNK3 interaction (co-immunoprecipitation), baseline: no NMDA
Method: (§2) All animal experiments were approved by the Animal Care Committee of the University of British Columbia. Primary cortical cultures were prepared from Wistar rat (UBC Animal Care Centre, Vancouver, BC, Canada) brains at embryonic days 18-19. Cultures were maintained in Neurobasal medium supplemented with B27 and 0.5 mM glutamax (Invitrogen™) as described previously (Yang et al., 2009).
(§3) The protocols for protein extraction have been described previously (Yang et al., 2009). For co-immunoprecipitation, cultured cells were washed with ice-cold PBS followed by incubation with 0.5 ml Gentle Lysis Buffer (GLB) containing 25 mM Tris-HCl (pH 7.4), 2 mM EDTA, 1 mM EGTA, 10 mM NaCl, 0.5% Triton X-100 and 10% Glycerol supplemented with the Complete Protease Inhibitor Tablets (Roche Applied Science™, Indianapolis, Ind., USA) and 1 mM PMSF. Total protein concentration was determined with the BioRad™ Protein Assay kit. Lysates were first precleaned by incubating with Protein A-Sepharose beads (Roche Applied Science™) for 1 h at 4° C., followed by incubation with indicated antibodies (>16 h at 4° C.) and protein A Sepharose bead (2 h at 4° C.). Lysates of rat brain tissues were precleaned with IgG and protein A-beads. Immunoprecipitates were washed three times with GLB buffer; boiled in 2× loading buffer with 1 mM dithiothreitol (DTT) for 3 min; and analyzed with SDS-PAGE as described previously (Yang et al., 2009). The relative intensities of the bands on immunoblots were analyzed and quantified using Image J™ (NIH).

neuronal cultures = test: LDH assay and PI staining, NMDA excitotoxicity-induced neuronal cell death; assay type: cell-based, rat; conditions: pretreatment, NMDA challenge 1 h, 24 h survival
Method: as §1
Neuronal cultures were challenged with indicated concentrations of NMDA for 1 h, followed by 24 h survival. The release of lactate dehydrogenase (LDH) was measured with an in vitro toxicology assay kit (Sigma™) according to the manufacturer's instructions. Spectrophotometric measurement was performed on a Multilabel Plate Reader (Envision™ 2103, Perkin Elmer™). The LDH reading represents the primary absorbance at a wavelength of 490 nm after subtraction of background absorbance at 690 nm. LDH readings were then converted to a percentage of neuronal death by dividing by the readings from cultures incubated with 1% triton for 15 min representing total LDH. Following the LDH assay, propidium iodide (PI) (Sigma™) was added to the medium at a final concentration of 1 μg/ml and neurons were stained for 30 min at 30° C. After fixation with 4% paraformaldehyde, neurons were washed with 1×PBS and stained with Hoechst™ 33342 (Sigma™). The fluorescence of PI and Hoechst™ were examined with laser microscopy and analyzed with ImageJ™.

zD17-JNK1 interaction = target: T2, zD17-JNK1 interaction (Rattus norvegicus, UniProt P49185); test: co-immunoprecipitation of zD17 with JNK1 in neuronal cultures; assay type: cell-based
T2 construct: endogenous in cells; host or cells: primary cortical neurons of embryonic Wistar rat
Method: as §2
as §3, with “Lysates were first precleaned by incubating with Protein A-Sepharose beads (Roche Applied Science™) for 1 h at 4° C., followed by incubation with indicated antibodies (>16 h at 4° C.) and protein A Sepharose bead (2 h at 4° C.). Lysates of rat brain tissues were precleaned with IgG and protein A-beads.” left out

zD17-JNK2 interaction = target: T3, zD17-JNK2 interaction (Rattus norvegicus, UniProt P49186); test: co-immunoprecipitation of zD17 with JNK2 in neuronal cultures; assay type: cell-based
T3 construct: endogenous in cells; host or cells: primary cortical neurons of embryonic Wistar rat
Method: as §2, §3

T1 sequence (P49187 whole entry): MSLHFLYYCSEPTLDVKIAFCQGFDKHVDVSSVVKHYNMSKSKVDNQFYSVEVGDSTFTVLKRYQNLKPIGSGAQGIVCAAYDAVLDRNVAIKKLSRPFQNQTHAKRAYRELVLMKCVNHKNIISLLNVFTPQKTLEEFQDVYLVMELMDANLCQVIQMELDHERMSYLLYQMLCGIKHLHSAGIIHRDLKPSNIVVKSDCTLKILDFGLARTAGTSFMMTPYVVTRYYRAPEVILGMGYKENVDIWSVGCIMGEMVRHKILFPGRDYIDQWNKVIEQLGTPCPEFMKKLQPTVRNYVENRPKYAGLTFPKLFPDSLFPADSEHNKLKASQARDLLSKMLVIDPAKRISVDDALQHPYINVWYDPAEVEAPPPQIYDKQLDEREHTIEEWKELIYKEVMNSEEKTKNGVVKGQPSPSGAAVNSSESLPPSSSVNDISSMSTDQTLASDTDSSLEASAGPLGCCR
Chain of zD17-JNK3 interaction (P49187 whole entry): as above
T3 sequence (P49186 whole entry): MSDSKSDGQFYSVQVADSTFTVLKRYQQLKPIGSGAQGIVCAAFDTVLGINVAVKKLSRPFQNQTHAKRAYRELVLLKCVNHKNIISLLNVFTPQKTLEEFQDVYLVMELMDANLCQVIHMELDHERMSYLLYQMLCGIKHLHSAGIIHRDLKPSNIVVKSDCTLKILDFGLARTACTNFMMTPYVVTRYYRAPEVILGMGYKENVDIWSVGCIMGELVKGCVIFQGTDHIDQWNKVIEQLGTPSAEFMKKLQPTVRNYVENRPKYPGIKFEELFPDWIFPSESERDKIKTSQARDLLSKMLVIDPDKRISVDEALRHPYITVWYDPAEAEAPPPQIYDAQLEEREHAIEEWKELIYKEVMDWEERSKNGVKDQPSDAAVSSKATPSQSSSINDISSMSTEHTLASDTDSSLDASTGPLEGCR
T2 sequence (P49185 whole entry): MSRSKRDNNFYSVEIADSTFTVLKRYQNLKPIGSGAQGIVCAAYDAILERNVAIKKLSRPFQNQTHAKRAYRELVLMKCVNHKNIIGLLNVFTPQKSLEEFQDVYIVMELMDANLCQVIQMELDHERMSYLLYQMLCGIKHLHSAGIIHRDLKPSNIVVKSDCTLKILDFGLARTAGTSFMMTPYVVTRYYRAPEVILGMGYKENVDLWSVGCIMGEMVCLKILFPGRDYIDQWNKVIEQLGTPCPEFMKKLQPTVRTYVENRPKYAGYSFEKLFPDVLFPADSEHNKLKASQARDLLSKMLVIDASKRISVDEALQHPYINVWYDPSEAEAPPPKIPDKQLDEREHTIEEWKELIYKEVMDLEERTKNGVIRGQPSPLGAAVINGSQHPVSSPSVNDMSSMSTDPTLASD

Molecule: Oc1c2ccccc2c2c3c(cccc13)N=N2 [SP600125, reference compound]
- axon length (cultured neurons; SP600125 incubation, control 161.2±3.9): 84.9±1.6%
- axon initiation rate normalized to control (cultured neurons; incubation of cultured neurons, Tau-1 marker): 18.2±4.1%

Molecule: TPLHWATRGGHLSMV (listed as Homo sapiens) [NIMoD, peptide comprising motif-D of zD17, fused to HIV-1 Tat transduction domain]
- JNK3 basal activity (JNK3; neuronal cultures): reduction of JNK3 basal activity
- JNK3 basal activity, fold change to control (JNK3; pretreatment of cells 1 μM for 2 h): 0.72±0.07 fold
- zD17-JNK3 interaction (co-immunoprecipitation), baseline (zD17-JNK3 interaction): significantly diminished

Molecule: MTPLMWAAYGTGSVGPTRLL (NIMoEmut NIMoE sequence with point mutations on three charged amino acids at positions 10, 12, and 15) [reference compound]
- enhancement of JNK3 activity induced by NMDA (JNK3; neuronal cultures): did not selectively block enhancement
- excitotoxicity-induced cell death as measured by LDH release and PI staining (neuronal cultures): no protective effects
- enhancement of the zD17-JNK3 interaction induced by NMDA/excitotoxicity (zD17-JNK3 interaction): did not selectively block enhancement

Molecule: N[C@@H](CCC(=O)O)C(=O)O [Glutamate, glutamate]
- zD17 interaction with JNK1, fold increase compared with control (zD17-JNK1 interaction): 1.4±0.1 fold
- zD17 interaction with JNK3, fold increase compared with control (zD17-JNK3 interaction): 2.6±0.2 fold
- zD17 interaction with JNK2, fold increase compared with control (zD17-JNK2 interaction): 1.7±0.2 fold

Molecule: CCCCCCCCCCCCCCC(Br)C(=O)O (stereo not drawn) [2-BrPA, 2-bromopalmitate]
- zD17-JNK3 interaction (co-immunoprecipitation), baseline (zD17-JNK3 interaction): robustly enhanced

Molecule: CN[C@H](CC(=O)O)C(=O)O [NMDA, N-methyl-D-aspartic acid]
- zD17 interaction with JNK1, fold increase compared with control (zD17-JNK1 interaction): 1.4±0.1 fold
- zD17 interaction with JNK3, fold increase compared with control (zD17-JNK3 interaction): 2.5±0.3 fold
- zD17 interaction with JNK2, fold increase compared with control (zD17-JNK2 interaction): 2.1±0.4 fold

Molecule: TNF-α
- fold increase of zD17-JNK3 interaction (zD17-JNK3 interaction; 50 ng/ml, 6 h): 1.53±0.11 fold

Molecule: NVKGESALDLAKQ (listed as Homo sapiens) [DIPep1, control peptide derived from an unrelated region of zD17 (255-267), reference compound]
- excitotoxicity-induced cell death as measured by LDH release and PI staining (neuronal cultures): no protective effects

Molecule: IL-1β: cytokine used to induce inflammation stress
- fold increase of zD17-JNK3 interaction (zD17-JNK3 interaction; 10 ng/ml, 16 h): 1.88±0.23 fold
